The inhibition is the share of the control response that was lost under treatment.

The record followed here is patent US10251889B2, “Substituted pyrazolo[1,5-a]pyrimidine compounds as Trk kinase inhibitors” (Array BioPharma, Inc., priority 2009, dated 2019).

Chain of Jak2 (human Jak2 kinase domain, amino acids 808-1132) (O60674 808-1132): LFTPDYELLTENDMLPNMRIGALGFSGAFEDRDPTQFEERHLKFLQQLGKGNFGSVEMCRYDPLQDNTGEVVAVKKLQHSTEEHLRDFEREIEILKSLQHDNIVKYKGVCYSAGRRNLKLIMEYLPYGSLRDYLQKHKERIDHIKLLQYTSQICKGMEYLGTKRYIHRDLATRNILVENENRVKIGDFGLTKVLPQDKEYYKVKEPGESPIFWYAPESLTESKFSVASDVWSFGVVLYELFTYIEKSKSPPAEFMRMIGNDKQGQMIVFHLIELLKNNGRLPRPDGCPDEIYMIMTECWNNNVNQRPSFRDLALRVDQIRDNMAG

The experiment addresses Jak2 (human Jak2 kinase domain, amino acids 808-1132) (Homo sapiens (Human), UniProt O60674). The experiment can be described thus: Jak2 inhibition assay (Omnia kinase assay). Format: biochemical. The conditions noted are these: read-out: Jak2 Enzyme (% inhibition at 1000 nM), Table 1; 1000 nM test compound. The method, then: The assays described in Examples C, D, E and F for the determination of JAK1, JAK2, JAK3 and Tyk2 kinase activity, respectively, utilized the Omnia® Kinase fluorescence peptide substrate-based technology (Invitrogen). […] The reactions were therefore read at excitation 360 nm and emission was measured at 485 nm every 50 seconds for 45 minutes using a PerkinElmer EnVision Multilabel Plate Reader.
The final buffer conditions for each of the JAK1, JAK2, JAK3 and Tyk2 assays were as follows: 25 mM HEPES, pH 7.4, 10 mM MgCl2, 0.01% Triton X-100 and 1 mM DTT.
Two-μL aliquots of these were transferred to a fresh plate for a ten-fold intermediate dilution with assay buffer. Five-μL aliquots of the diluted compounds were then transferred to 20-μL of assay mixtures described in Examples C, D, E and F for a final concentration of DMSO of 2%. […] For each plate, percent of control (POC) values were calculated for each well according to the following equation:
where Xmax=Average Uninhibited Controls • Xmin=Average Background IC50's were estimated from the POC's using a standard 4-parameter logistic model:
where A=Minimum Y (Bottom Asymptote) • B=Maximum Y (Top Asymptote) • C=EC50 • D=Slope Factor • X=Compound Concentration (nM) • Y=POC
The IC50 is defined as the concentration of inhibitor at which the POC equals 50 for the fitted curve.
Compounds of Formula I were screened for their ability to inhibit Jak2 using the general enzyme inhibition assay method, in which the assay mixture contained 500 μM ATP, 10 μM Omnia® Y7 peptide (Catalog # IVGN KNZ3071C, Invitrogen Corporation, Carlsbad, Calif.) and 4 nM Jak2 in a total volume of 20 μL. Human Jak2 kinase domain comprising amino acids 808-1132 was purchased from Invitrogen Corporation, Carlsbad, Calif. (catalog # IVGN PV4210).
For the molecule `CONC(=O)c1cnn2ccc(N3CCC[C@@H]3c3cc(F)ccc3F)nc12` [Example 65, (R)-5-(2-(2,5-difluorophenyl)pyrrolidin-1-yl)-N-methoxypyrazolo[1,5-a]pyrimidine-3-carboxamide], the inhibition at 1 µM stood at 34.1%.

Take `O=C(NOCC1CC1)c1cnn2ccc(N3CCC[C@@H]3c3cc(F)ccc3F)nc12` [Example 66, (R)—N-(cyclopropylmethoxy)-5-(2-(2,5-difluorophenyl)pyrrolidin-1-yl)pyrazolo[1,5-a]pyrimidine-3-carboxamide]: the inhibition at 1 µM was determined as 24.7%. The result for `CC1(C)CC[C@H](c2cc(F)ccc2F)N1c1ccn2ncc(C(N)=O)c2n1` [Example 67, (R)-5-(5-(2,5-difluorophenyl)-2,2-dimethylpyrrolidin-1-yl)pyrazolo[1,5-a]pyrimidine-3-carboxamide] reads 22.3%; that for `CC1(C)CC[C@H](c2cc(F)ccc2F)N1c1ccn2ncc(C(=O)NC3CC3)c2n1` [Example 68, (R)—N-cyclopropyl-5-(5-(2,5-difluorophenyl)-2,2-dimethylpyrrolidin-1-yl)pyrazolo[1,5-a]pyrimidine-3-carboxamide], 23%; that for `CC(C)(C#N)NC(=O)c1cnn2ccc(N3CCC[C@@H]3c3cncc(F)c3)nc12` [Example 69, (R)—N-(2-cyanopropan-2-yl)-5-(2-(5-fluoropyridin-3-yl)pyrrolidin-1-yl)pyrazolo[1,5-a]pyrimidine-3-carboxamide], 6%. The result for `CC(C)(CF)NC(=O)c1cnn2ccc(N3CCC[C@@H]3c3cncc(F)c3)nc12` [Example 71, (R)—N-(1-fluoro-2-methylpropan-2-yl)-5-(2-(5-fluoropyridin-3-yl)pyrrolidin-1-yl)pyrazolo[1,5-a]pyrimidine-3-carboxamide] reads 6.2%; that for `O=C(NC1CCOCC1)c1cnn2ccc(N3CCC[C@@H]3c3cncc(F)c3)nc12` [Example 72, (R)-5-(2-(5-fluoropyridin-3-yl)pyrrolidin-1-yl)-N-(tetrahydro-2H-pyran-4-yl)pyrazolo[1,5-a]pyrimidine-3-carboxamide], 11.7%; that for `CONC(=O)c1cnn2ccc(N3CCC[C@@H]3c3cncc(F)c3)nc12` [Example 73, (R)-5-(2-(5-fluoropyridin-3-yl)pyrrolidin-1-yl)-N-methoxypyrazolo[1,5-a]pyrimidine-3-carboxamide], 4.9%. Regarding `CONC(=O)c1cnn2ccc(N3CCC[C@@H]3c3cccc(F)c3)nc12` [Example 75], the inhibition at 1 µM was determined as 15.1%. For the molecule `NC(=O)c1cnn2ccc(N3CCC[C@@H]3c3cc(F)cc(OCCN4CCOCC4)c3)nc12` [Example 76, (R)-5-(2-(3-fluoro-5-(2-morpholinoethoxy)phenyl)pyrrolidin-1-yl)pyrazolo[1,5-a]pyrimidine-3-carboxamide], the inhibition at 1 µM was found to be 4.8%. The result for `COCCOc1cc(F)cc([C@H]2CCCN2c2ccn3ncc(C(=O)NC4CC4)c3n2)c1` [Example 77, (R)—N-cyclopropyl-5-(2-(3-fluoro-5-(2-methoxyethoxy)phenyl)pyrrolidin-1-yl)pyrazole [1,5-a]pyrimidine-3-carboxamide] reads 15.3%. The result for `COCCOc1cc(F)cc([C@H]2CCCN2c2ccn3ncc(C(N)=O)c3n2)c1` [Example 78, (R)-5-(2-(3-fluoro-5-(2-methoxyethoxy)phenyl)pyrrolidin-1-yl)pyrazolo[1,5-a]pyrimidine-3-carboxamide] reads 5.8%; that for `COc1ncc(F)cc1[C@H]1CCCN1c1ccn2ncc(C(=O)NC3CC3)c2n1` [Example 79, (R)—N-cyclopropyl-5-(2-(5-fluoro-2-methoxypyridin-3-yl)pyrrolidin-1-yl)pyrazolo[1,5-a]pyrimidine-3-carboxamide], 54.8%.

As to `COc1ncc(F)cc1[C@H]1CCCN1c1ccn2ncc(C(=O)NC(C)(C)C)c2n1` [Example 80, (R)—N-tert-butyl-5-(2-(5-fluoro-2-methoxypyridin-3-yl)pyrrolidin-1-yl)pyrazolo[1,5-a]pyrimidine-3-carboxamide], the inhibition at 1 µM was 50.7%. The result for `COc1ncc(F)cc1[C@H]1CCCN1c1ccn2ncc(C(=O)NC(C)(C)CF)c2n1` [Example 81, (R)-5-(2-(5-fluoro-2-methoxypyridin-3-yl)pyrrolidin-1-yl)-N-(1-fluoro-2-methylpropan-2-yl)pyrazolo[1,5-a]pyrimidine-3-carboxamide] reads 54.4%; that for `COc1ncc(F)cc1[C@H]1CCCN1c1ccn2ncc(C(N)=O)c2n1` [Example 82, (R)-5-(2-(5-fluoro-2-methoxypyridin-3-yl)pyrrolidin-1-yl)pyrazolo[1,5-a]pyrimidine-3-carboxamide], 10.7%. For the molecule `CONC(=O)c1cnn2ccc(N3CCC[C@@H]3c3cc(F)cnc3OC)nc12` [Example 83, (R)-5-(2-(5-fluoro-2-methoxypyridin-3-yl)pyrrolidin-1-yl)-N-methoxypyrazolo[1,5-a]pyrimidine-3-carboxamide], the inhibition at 1 µM is 26.3%. The result for `O=C(NC1(C(=O)O)CC1)c1cnn2ccc(N3CCC[C@@H]3c3cc(F)ccc3F)nc12` [Example 84, (R)-1-(5-(2-(2,5-difluorophenyl)pyrrolidin-1-yl)pyrazolo[1,5-a]pyrimidine-3-carboxamido)cyclopropanecarboxylic Acid] reads 2.7%. The result for `O=C(NC1CC1)c1cnn2ccc(N3CCC[C@@H]3c3cc(F)cc(OCCN4CCOCC4)c3)nc12` [Example 85, (R)—N-cyclopropyl-5-(2-(3-fluoro-5-(2-morpholinoethoxy)phenyl)pyrrolidin-1-yl)pyrazolo[1,5-a]pyrimidine-3-carboxamide] reads 6%; that for `NC(=O)c1cnn2ccc(N3CCC[C@@H]3c3cc(F)ccc3OCCN3CCOCC3)nc12` [Example 86, (R)-5-(2-(5-fluoro-2-(2-morpholinoethoxy)phenyl)pyrrolidin-1-yl)pyrazolo[1,5-a]pyrimidine-3-carboxamide], 17.3%. The result for `O=C(NC1CC1)c1cnn2ccc(N3CCC[C@@H]3c3cc(F)ccc3OCCN3CCOCC3)nc12` [Example 87, (R)—N-cyclopropyl-5-(2-(5-fluoro-2-(2-morpholinoethoxy)phenyl)pyrrolidin-1-yl)pyrazolo[1,5-a]pyrimidine-3-carboxamide] reads 37.2%; that for `O=C(NOC[C@@H](O)CO)c1cnn2ccc(N3CCC[C@@H]3c3cc(F)ccc3F)nc12` [Example 88, 5-((R)-2-(2,5-difluorophenyl)pyrrolidin-1-yl)-N—((S)-2,3-dihydroxypropoxy)pyrazolo[1,5-a]pyrimidine-3-carboxamide], 15.1%. Take `COCCOc1ccc(F)cc1[C@H]1CCCN1c1ccn2ncc(C(N)=O)c2n1` [Example 89, (R)-5-(2-(5-fluoro-2-(2-methoxyethoxy)phenyl)pyrrolidin-1-yl)pyrazolo[1,5-a]pyrimidine-3-carboxamide]: the inhibition at 1 µM amounted to 33.1%. The result for `COCCOc1ccc(F)cc1[C@H]1CCCN1c1ccn2ncc(C(=O)NC3CC3)c2n1` [Example 90, (R)—N-cyclopropyl-5-(2-(5-fluoro-2-(2-methoxyethoxy)phenyl)pyrrolidin-1-yl)pyrazolo[1,5-a]pyrimidine-3-carboxamide] reads 67.3%; that for `CC1(O)CN(C(=O)c2cnn3ccc(N4CCC[C@@H]4c4cncc(F)c4)nc23)C1` [Example 92, (R)-(5-(2-(5-fluoropyridin-3-yl)pyrrolidin-1-yl)pyrazolo[1,5-a]pyrimidin-3-yl)(3-hydroxy-3-methylazetidin-1-yl)methanone], 0.5%.

Regarding `O=C(c1cnn2ccc(N3CCC[C@@H]3c3cncc(F)c3)nc12)N1CCCC1` [Example 94, (R)-(5-(2-(5-fluoropyridin-3-yl)pyrrolidin-1-yl)pyrazolo[1,5-a]pyrimidin-3-yl)(pyrrolidin-1-yl)methanone], the inhibition at 1 µM was determined as 4.4%.

For the molecule `O=C(Nc1ccc(F)cn1)c1cnn2ccc(N3CCC[C@@H]3c3cncc(F)c3)nc12` [Example 95, (R)—N-(5-fluoropyridin-2-yl)-5-(2-(5-fluoropyridin-3-yl)pyrrolidin-1-yl)pyrazolo[1,5-a]pyrimidine-3-carboxamide], the inhibition at 1 µM amounted to 19.2%. The result for `O=C(NCC(F)CCl)c1cnn2ccc(N3CCC[C@@H]3c3cncc(F)c3)nc12` (stereo partly drawn) [Example 97, N-(3-chloro-2-fluoropropyl)-5-((R)-2-(5-fluoropyridin-3-yl)pyrrolidin-1-yl)pyrazolo[1,5-a]pyrimidine-3-carboxamide] reads 6.8%; that for `O=C(NC1CCC1)c1cnn2ccc(N3CCC[C@@H]3c3cncc(F)c3)nc12` [Example 101, (R)-N-cyclobutyl-5-(2-(5-fluoropyridin-3-yl)pyrrolidin-1-yl)pyrazolo[1,5-a]pyrimidine-3-carboxamide], 26.2%.
